Experimental data as given in patent US10590105B2, “1,3-dihydroxy-phenyl derivatives useful as immunomodulators” (BRISTOL-MYERS SQUIBB COMPANY, priority 2016, dated 2020).

biological target: PD-1/PD-L1 interaction (PD-1-Ig / PD-L1-His) (Homo sapiens (Human), UniProt Q9NZQ7); assay: PD-1/PD-L1 Homogenous Time-Resolved Fluorescence (HTRF) binding assay; conditions: PD-1/PD-L1 HTRF binding assay; value given as range class; read-out: Range or IC50
Sequence (Q9NZQ7 other isoform, or with tags, fused parts or gaps): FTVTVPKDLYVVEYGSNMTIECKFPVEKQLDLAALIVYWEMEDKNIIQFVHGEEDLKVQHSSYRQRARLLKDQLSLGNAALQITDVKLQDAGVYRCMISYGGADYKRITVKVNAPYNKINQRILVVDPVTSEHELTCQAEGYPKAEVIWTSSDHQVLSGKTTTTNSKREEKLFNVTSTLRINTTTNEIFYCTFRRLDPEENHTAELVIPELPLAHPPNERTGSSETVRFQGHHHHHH

Compound | IC50 [µM]
Cc1c(COc2cc(OCc3cncc(C#N)c3)c(CN[C@](C)(CO)C(=O)O)cc2Cl)cccc1-c1ccc2nccnc2c1 [Example 1035, (R)-2-((5-chloro-2-((5-cyanopyridin-3-yl)methoxy)-4-((2-methyl-3-(quinoxalin-6-yl)benzyl)oxy)benzyl)amino)-3-hydroxy-2-methylpropanoic acid] | 0.001 to 0.01
Cc1c(COc2cc(OCc3cncc(C#N)c3)c(CN[C@](C)(CO)C(=O)O)cc2Cl)cccc1-c1ccc2ncsc2c1 [Example 1011, (R)-2-((4-((3-(benzo[d]thiazol-6-yl)-2-methylbenzyl)oxy)-5-chloro-2-((5-cyanopyridin-3-yl)methoxy)benzyl)amino)-3-hydroxy-2-methylpropanoic acid] | 0.011 to 0.15
Cc1c(COc2cc(OCc3cncc(C#N)c3)c(CN3CCC[C@@]3(C)C(=O)O)cc2Cl)cccc1-c1ccc2scnc2c1 [Example 1023, (S)-1-(4-((3-(benzo[d]thiazol-5-yl)-2-methylbenzyl)oxy)-5-chloro-2-((5-cyanopyridin-3-yl)methoxy)benzyl)-2-methylpyrrolidine-2-carboxylic acid] | 0.011 to 0.15
Cc1c(COc2cc(OCc3cncc(C#N)c3)c(CNC(C)(CO)CO)cc2Cl)cccc1-c1ccnc(OCCCN2CCCCC2)c1Cl [Example 2001, 5-((4-chloro-5-((3-(3-chloro-2-(3-(piperidin-1-yl)propoxy)pyridin-4-yl)-2-methylbenzyl)oxy)-2-(((1,3-dihydroxy-2-methylpropan-2-yl)amino)methyl)phenoxy)methyl)nicotinonitrile] | 0.001 to 0.01
Cc1c(COc2cc(OCc3cncc(C#N)c3)c(CN[C@H](CO)C(=O)O)cc2Cl)cccc1-c1ccc2nccnc2c1 [Example 1034, (R)-2-((5-chloro-2-((5-cyanopyridin-3-yl)methoxy)-4-((2-methyl-3-(quinoxalin-6-yl)benzyl)oxy)benzyl)amino)-3-hydroxypropanoic acid] | 0.001 to 0.01
Cc1c(COc2cc(OCc3cncc(C#N)c3)c(CN[C@@H](CO)C(=O)O)cc2Cl)cccc1-c1cccn(CCCN2CC[C@@H](O)C2)c1=O [Example 1040, (S)-2-((5-chloro-2-((5-cyanopyridin-3-yl)methoxy)-4-((3-(1-(3-((R)-3-hydroxypyrrolidin-1-yl)propyl)-2-oxo-1,2-dihydropyridin-3-yl)-2-methylbenzyl)oxy)benzyl)amino)-3-hydroxypropanoic acid] | 0.151 to 10
Cc1c(COc2cc(OCc3cncc(C#N)c3)c(CN[C@](C)(CO)C(=O)O)cc2Cl)cccc1-c1cnc2ccccc2c1 [Example 1002, (R)-2-((5-chloro-2-((5-cyanopyridin-3-yl)methoxy)-4-((2-methyl-3-(quinolin-3-yl)benzyl)oxy)benzyl)amino)-3-hydroxy-2-methylpropanoic acid] | 0.151 to 10
